What was measured:
Assay in all cases: relative viability (nuclei count vs DMSO), 5 days (fraction); higher = more cells survive
[1] = compound: Cn1cc(-c2cnc3ccc4ccc(CS(=O)(=O)NCc5ccccn5)cc4c(=O)c3c2)cn1 [MK-8033] + COc1cc2c(Oc3ccc(NC(=O)C4(C(=O)Nc5ccc(F)cc5)CC4)cc3F)ccnc2cc1OCCCN1CCOCC1 [Foretinib] (partner 0.25 µM)
Procedure, shortened: (§1)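 Nuclei were stained with Hoechst during a one-step fixation (final 0.05% Triton X-100, 1% formaldehyde, 1 ug/ml Hoechst) carried out 5 days after dosing, then counted on 4× images. The cells, lung cancer lines in 1536-well plates, had been dosed by pin tool the day after seeding with one drug alone or a fixed anchor-drug dose plus five library-drug doses (not always all listed) in √10 steps. Relative viability is the nuclei count in treated wells divided by that in vehicle wells, and each value is the median of duplicate plates.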

[2] = compound: Cn1cc(-c2cnc3ccc4ccc(CS(=O)(=O)NCc5ccccn5)cc4c(=O)c3c2)cn1 [MK-8033] + Cc1nc(Nc2ncc(C(=O)Nc3c(C)cccc3Cl)s2)cc(N2CCN(CCO)CC2)n1 [Dasatinib] (partner 0.075 µM)
Procedure, shortened: as §1

[3] = compound: CC[C@@H](C)CNCC(=O)N1CCC2=C([C@@H]1COC3=CC=CC(=C3)C)C=CS2 [RU-SKI 43] + Nc1nc2[nH]cc(CCc3ccc(C(=O)N[C@@H](CCC(=O)O)C(=O)O)cc3)c2c(=O)[nH]1 [Pemetrexed] (partner 0.2 µM)
Procedure, shortened: as §1

[4] = compound: CCc1c2c(nc3ccc(OC(=O)N4CCC(N5CCCCC5)CC4)cc13)-c1cc3c(c(=O)n1C2)COC(=O)[C@]3(O)CC [Irinotecan] + NC(=O)Nc1cc(-c2cccc(F)c2)sc1C(=O)N[C@H]1CCCNC1 [AZD7762] (partner 0.2 µM)
Procedure, shortened: as §1

Cell Line	relative viability ([1]; first compound 0.02 µM)	relative viability ([1]; first compound 0.06325 µM)	relative viability ([1]; first compound 0.2 µM)	relative viability ([1]; first compound 0.6325 µM)	relative viability ([1]; first compound 2 µM)	relative viability ([2]; first compound 0.02 µM)	relative viability ([2]; first compound 0.06325 µM)	relative viability ([2]; first compound 0.2 µM)	relative viability ([2]; first compound 0.6325 µM)	relative viability ([2]; first compound 2 µM)	relative viability ([3]; first compound 0.1 µM)	relative viability ([3]; first compound 0.3162 µM)	relative viability ([3]; first compound 1 µM)	relative viability ([3]; first compound 3.162 µM)	relative viability ([3]; first compound 10 µM)	relative viability ([4]; first compound 0.6325 µM)	relative viability ([4]; first compound 2 µM)	relative viability ([4]; first compound 6.325 µM)	relative viability ([4]; first compound 20 µM)
NCI-H1299	1.09	1.08	1.02	1.13	1.06	–	–	–	–	–	–	–	–	–	–	–	–	–	–
SK-LU-1	0.843	0.813	0.837	0.849	0.815	0.153	0.224	0.182	0.185	0.191	0.969	1.16	1.07	1.04	0.939	–	–	–	–
Calu-6	0.833	0.815	0.874	0.914	0.81	–	–	–	–	–	–	–	–	–	–	–	–	–	–
NCI-H1648	–	–	–	–	–	–	–	–	–	–	0.682	0.861	0.531	0.659	0.558	0.562	0.768	0.434	0.466
NCI-H522	–	–	–	–	–	0.776	0.696	0.815	1.07	0.818	1.26	0.966	1.18	1.02	1.16	0.635	0.746	0.571	0.555
ABC-1	1.03	0.97	0.906	0.985	1.11	0.735	0.434	0.501	0.491	0.61	–	–	–	–	–	–	0.718	0.308	0.422
NCI-H2023	0.822	0.786	0.701	0.948	0.771	0.603	0.437	0.421	0.342	0.288	0.249	0.259	0.286	0.21	0.243	–	–	–	–
EBC-1	0.103	0.0762	0.0977	0.126	0.0876	–	–	–	–	–	–	–	–	–	–	–	–	–	–
NCI-H2228	0.96	0.806	0.673	0.721	0.749	0.586	0.517	0.471	0.446	0.482	0.288	0.353	0.302	0.376	0.299	–	–	–	–
NCI-H1703	0.316	0.393	0.351	0.32	0.337	–	–	–	–	–	–	–	–	–	–	–	0.124	0.128	0.181
NCI-H2009	1.25	1.25	1.19	1.24	1.14	0.299	0.329	0.308	0.232	0.279	1.06	1.17	1.14	1.06	1.08	–	–	–	–
COR-L 105	1.35	0.976	0.992	1.05	0.907	0.368	0.303	0.328	0.335	0.402	1.11	1.12	1.17	1.04	1.03	–	–	–	–
COR-L23	0.934	0.997	0.986	1.04	0.993	0.458	0.427	0.522	0.466	0.489	0.203	0.202	0.205	0.22	0.189	–	–	–	–
NCI-H520	0.992	0.777	0.762	0.844	0.556	0.193	0.187	0.211	0.221	0.168	0.651	0.801	0.831	0.858	0.636	–	–	–	–
NCI-H1650	1.13	1.04	1.07	1.08	0.951	0.27	0.254	0.275	0.325	0.272	0.344	0.37	0.439	0.377	0.322	–	–	–	–
A549	0.962	0.853	0.892	0.985	0.945	–	–	–	–	–	–	–	–	–	–	–	–	–	–
NCI-H1563	0.899	0.927	0.903	0.97	0.981	0.468	0.45	0.473	0.362	0.46	0.772	0.785	0.84	0.725	0.733	–	–	–	–
NCI-H1623	0.904	0.729	0.889	0.812	0.943	0.608	0.504	0.642	0.516	0.57	–	–	–	–	–	–	–	–	–
SK-MES-1	0.899	0.86	0.858	0.805	0.851	0.347	0.337	0.427	0.365	0.411	0.962	1.13	1.12	0.964	0.916	–	–	–	–
HCC-44	–	–	–	–	–	–	–	–	–	–	0.624	0.652	0.639	0.721	0.69	0.909	1.03	0.798	0.486
SW 1573	0.93	0.759	0.841	0.918	0.995	0.444	0.508	0.502	0.424	0.466	0.674	0.942	0.991	0.867	0.759	–	–	–	–
IA-LM	0.989	1.03	1.17	1.15	1.12	–	–	–	–	–	–	–	–	–	–	–	–	–	–
NCI-H727	0.817	–	0.859	0.685	1.06	0.363	–	0.464	0.435	0.322	–	–	–	–	–	0.462	0.575	0.406	0.342
NCI-H661	1.04	0.995	0.997	0.919	0.985	0.886	0.818	0.783	0.766	0.858	0.874	1.05	0.902	0.952	0.861	–	–	–	–
